Measurements taken from ChEMBL document CHEMBL5500393, “Discovery and Optimization of Novel SaFabI Inhibitors as Specific Therapeutic Agents for MRSA Infection” (J Med Chem, 2024).
Values after ≈ are worked out from the molar mass of the structure shown.

How the values were obtained:
[1] = target: T1, Enoyl-[acyl-carrier-protein] reductase [NADPH] FabI (Staphylococcus aureus) (UniProt Q6GI75); test: Inhibition of N-terminal his 6 tagged Staphylococcus aureus Fabi (1 to […] residues) expressed in Escherichia coli BL21 at 10 uM incubated for 30 mins in presence of NADPH by fluorescence based microplate reader analysis relative to control
T1 sequence (whole entry): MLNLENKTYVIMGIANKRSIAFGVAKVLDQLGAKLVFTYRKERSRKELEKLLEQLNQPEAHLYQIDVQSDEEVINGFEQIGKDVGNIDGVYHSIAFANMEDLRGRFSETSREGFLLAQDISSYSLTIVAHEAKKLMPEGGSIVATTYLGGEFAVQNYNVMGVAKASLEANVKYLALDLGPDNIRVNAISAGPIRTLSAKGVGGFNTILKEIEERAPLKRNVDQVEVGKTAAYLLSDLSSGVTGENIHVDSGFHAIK

[2] = target: T1, Enoyl-[acyl-carrier-protein] reductase [NADPH] FabI (Staphylococcus aureus); test: Inhibition of N-terminal his 6 tagged Staphylococcus aureus Fabi (1 to […] residues) expressed in Escherichia coli BL21 at 1 uM incubated for 30 mins in presence of NADPH by fluorescence based microplate reader analysis relative to control
[3] = target: T2, Enoyl-[acyl-carrier-protein] reductase [NADPH] FabI (Staphylococcus aureus, UniProt Q6GI75); test: Inhibition of N-terminal his 6 tagged Staphylococcus aureus Fabi (1 to […] residues) expressed in Escherichia coli BL21 incubated for 30 mins in presence of NADPH by fluorescence based microplate reader analysis
T2 sequence (Q6GI75 whole entry): T1 sequence (whole entry)

Staphylococcus aureus [4] = test: Antimicrobial activity against […] Staphylococcus aureus ATCC33591 measured after 24 hrs by CLSI protocol based microdilution method; assay type: functional
Staphylococcus aureus [5] = test: Antimicrobial activity against […] Staphylococcus aureus ATCC43300 measured after 24 hrs by CLSI protocol based microdilution method; assay type: functional
Staphylococcus aureus [6] = test: Antimicrobial activity against […] Staphylococcus aureus USA300 measured after 24 hrs by CLSI protocol based microdilution method; assay type: functional
Staphylococcus aureus [7] = test: Antimicrobial activity against […] Staphylococcus aureus NRS271 measured after 24 hrs by CLSI protocol based microdilution method; assay type: functional
Staphylococcus aureus [8] = test: Antimicrobial activity against methicillin-susceptible Staphylococcus aureus ATCC29213 measured after 24 hrs by CLSI protocol based microdilution method; assay type: functional
Staphylococcus aureus [9] = test: Antimicrobial activity against methicillin-susceptible Staphylococcus aureus ATCC25923 measured after 24 hrs by CLSI protocol based microdilution method; assay type: functional
Enterococcus faecium = test: Antimicrobial activity against Enterococcus faecium ATCC19434 measured after 24 hrs by CLSI protocol based microdilution method; assay type: functional
Enterococcus faecalis = test: Antimicrobial activity against Enterococcus faecalis ATCC29212 measured after 24 hrs by CLSI protocol based microdilution method; assay type: functional
Pseudomonas aeruginosa = test: Antimicrobial activity against Pseudomonas aeruginosa PAO1 measured after 24 hrs by CLSI protocol based microdilution method; assay type: functional
Escherichia coli = test: Antimicrobial activity against Escherichia coli ATCC25922 measured after 24 hrs by CLSI protocol based microdilution method; assay type: functional
Acinetobacter baumannii = test: Antimicrobial activity against Acinetobacter baumannii ATCC19606 measured after 24 hrs by CLSI protocol based microdilution method; assay type: functional
Candida albicans = test: Antimicrobial activity against Candida albicans SC5314 measured after 48 hrs by CLSI protocol based microdilution method; assay type: functional

Row | Structure (SMILES) | inhibition [1] | inhibition [2] | IC50 [3] | MIC (Staphylococcus aureus [4]) | MIC (Staphylococcus aureus [5]) | MIC (Staphylococcus aureus [6]) | MIC (Staphylococcus aureus [7]) | MIC (Staphylococcus aureus [8]) | MIC (Staphylococcus aureus [9]) | MIC (Enterococcus faecium) | MIC (Enterococcus faecalis) | MIC (Pseudomonas aeruginosa) | MIC (Escherichia coli) | MIC (Acinetobacter baumannii) | MIC (Candida albicans)
1 | Cn1c(C2CC(=O)N(c3cccc(F)c3Br)C2)nc2ccccc21 (stereo not given) | 83% | 23.5% | 2730 nM | 16 µg/mL (≈ 41.2 µM) | > 32 µg/mL | 32 µg/mL (≈ 82.4 µM) | > 32 µg/mL | 32 µg/mL (≈ 82.4 µM) | > 32 µg/mL | > 32 µg/mL | > 32 µg/mL | > 32 µg/mL | > 32 µg/mL | > 32 µg/mL | > 32 µg/mL
2 | Cn1c(C2CC(=O)N(c3cccc(Cl)c3F)C2)nc2ccccc21 (stereo not given) | 97.9% | 65.4% | 579 nM | 4 µg/mL (≈ 11.6 µM) | 4 µg/mL (≈ 11.6 µM) | 8 µg/mL (≈ 23.3 µM) | 8 µg/mL (≈ 23.3 µM) | 4 µg/mL (≈ 11.6 µM) | 4 µg/mL (≈ 11.6 µM) | > 32 µg/mL | > 32 µg/mL | > 32 µg/mL | > 32 µg/mL | > 32 µg/mL | > 32 µg/mL
3 | Cn1ccc2c(N3CC(c4nc5ccccc5n4C)CC3=O)cccc21 (stereo not given) | 62.1% | 9.8% | 8330 nM | > 32 µg/mL | > 32 µg/mL | > 32 µg/mL | > 32 µg/mL | > 32 µg/mL | > 32 µg/mL | > 32 µg/mL | > 32 µg/mL | > 32 µg/mL | > 32 µg/mL | > 32 µg/mL | > 32 µg/mL
4 | Cc1cccc(N2CC(c3nc4ccccc4n3C)CC2=O)c1Cl (stereo not given) | 95.2% | 47.3% | 1180 nM | 8 µg/mL (≈ 23.5 µM) | 8 µg/mL (≈ 23.5 µM) | 16 µg/mL (≈ 47.1 µM) | 8 µg/mL (≈ 23.5 µM) | 8 µg/mL (≈ 23.5 µM) | 16 µg/mL (≈ 47.1 µM) | > 32 µg/mL | > 32 µg/mL | > 32 µg/mL | > 32 µg/mL | > 32 µg/mL | > 32 µg/mL
5 | Cn1c(C2CC(=O)N(c3cccc(Cl)c3Br)C2)nc2ccccc21 (stereo not given) | 95.8% | 46% | 230 nM | 8 µg/mL (≈ 19.8 µM) | 16 µg/mL (≈ 39.5 µM) | 6 µg/mL (≈ 14.8 µM) | 16 µg/mL (≈ 39.5 µM) | 8 µg/mL (≈ 19.8 µM) | 16 µg/mL (≈ 39.5 µM) | > 32 µg/mL | > 32 µg/mL | > 32 µg/mL | > 32 µg/mL | > 32 µg/mL | > 32 µg/mL
6 | COc1cccc(N2CC(c3nc4ccccc4n3C)CC2=O)c1C (stereo not given) | 88.2% | 27.9% | 2270 nM | > 32 µg/mL | 32 µg/mL (≈ 95.4 µM) | 16 µg/mL (≈ 47.7 µM) | 16 µg/mL (≈ 47.7 µM) | 16 µg/mL (≈ 47.7 µM) | 32 µg/mL (≈ 95.4 µM) | > 32 µg/mL | > 32 µg/mL | > 32 µg/mL | > 32 µg/mL | > 32 µg/mL | > 32 µg/mL
7 | Cc1cccc(N2CC(c3nc4ccccc4n3C)CC2=O)c1 (stereo not given) | 67.7% | 4.9% | 5700 nM | > 32 µg/mL | > 32 µg/mL | > 32 µg/mL | > 32 µg/mL | > 32 µg/mL | > 32 µg/mL | > 32 µg/mL | > 32 µg/mL | > 32 µg/mL | > 32 µg/mL | > 32 µg/mL | > 32 µg/mL
8 | Cn1c(C2CC(=O)N(c3ccc(O)c(O)c3)C2)nc2ccccc21 (stereo not given) | 70.4% | 10.7% | 5190 nM | > 32 µg/mL | > 32 µg/mL | > 32 µg/mL | > 32 µg/mL | > 32 µg/mL | > 32 µg/mL | > 32 µg/mL | > 32 µg/mL | > 32 µg/mL | > 32 µg/mL | > 32 µg/mL | > 32 µg/mL
9 | COc1ccc(N2CC(c3nc4ccccc4n3C)CC2=O)cc1Br (stereo not given) | 72.3% | 9.4% | 3020 nM | > 32 µg/mL | > 32 µg/mL | > 32 µg/mL | > 32 µg/mL | > 32 µg/mL | > 32 µg/mL | > 32 µg/mL | > 32 µg/mL | > 32 µg/mL | > 32 µg/mL | > 32 µg/mL | > 32 µg/mL
10 | Cn1c(C2CC(=O)N(c3cccc(Br)c3O)C2)nc2ccccc21 (stereo not given) | 94.1% | 28.5% | 1880 nM | 16 µg/mL (≈ 41.4 µM) | 16 µg/mL (≈ 41.4 µM) | 16 µg/mL (≈ 41.4 µM) | 32 µg/mL (≈ 82.8 µM) | 16 µg/mL (≈ 41.4 µM) | 32 µg/mL (≈ 82.8 µM) | > 32 µg/mL | > 32 µg/mL | > 32 µg/mL | > 32 µg/mL | > 32 µg/mL | > 32 µg/mL
11 | Cn1c(C2CC(=O)N(c3cccc4ccccc34)C2)nc2ccccc21 (stereo not given) | 96.9% | 48.4% | 1080 nM | 8 µg/mL (≈ 23.4 µM) | 16 µg/mL (≈ 46.9 µM) | 8 µg/mL (≈ 23.4 µM) | 16 µg/mL (≈ 46.9 µM) | 8 µg/mL (≈ 23.4 µM) | 8 µg/mL (≈ 23.4 µM) | > 32 µg/mL | > 32 µg/mL | > 32 µg/mL | > 32 µg/mL | > 32 µg/mL | > 32 µg/mL
12 | Cn1c(C2CC(=O)N(c3cccc(F)c3F)C2)nc2ccccc21 (stereo not given) | 91.8% | 35.3% | 227 nM | 16 µg/mL (≈ 48.9 µM) | 32 µg/mL (≈ 97.8 µM) | 16 µg/mL (≈ 48.9 µM) | 32 µg/mL (≈ 97.8 µM) | 16 µg/mL (≈ 48.9 µM) | 32 µg/mL (≈ 97.8 µM) | > 32 µg/mL | > 32 µg/mL | > 32 µg/mL | > 32 µg/mL | > 32 µg/mL | > 32 µg/mL
13 | Cc1ccccc1N1CC(c2nc3ccccc3n2C)CC1=O (stereo not given) | 85.2% | 18.3% | 2410 nM | 16 µg/mL (≈ 52.4 µM) | 32 µg/mL (≈ 105 µM) | 32 µg/mL (≈ 105 µM) | 16 µg/mL (≈ 52.4 µM) | 16 µg/mL (≈ 52.4 µM) | 32 µg/mL (≈ 105 µM) | > 32 µg/mL | > 32 µg/mL | > 32 µg/mL | > 32 µg/mL | > 32 µg/mL | > 32 µg/mL
14 | Cc1c(N2CC(c3nc4ccccc4n3C)CC2=O)cccc1C(F)(F)F (stereo not given) | 93.9% | 66.1% | 632 nM | 4 µg/mL (≈ 10.7 µM) | 4 µg/mL (≈ 10.7 µM) | 8 µg/mL (≈ 21.4 µM) | 8 µg/mL (≈ 21.4 µM) | 4 µg/mL (≈ 10.7 µM) | 8 µg/mL (≈ 21.4 µM) | > 32 µg/mL | > 32 µg/mL | > 32 µg/mL | > 32 µg/mL | > 32 µg/mL | > 32 µg/mL
15 | CCCn1c(C2CC(=O)N(c3cccc(Br)c3C)C2)nc2ccccc21 (stereo not given) | 99.5% | 57.6% | 745 nM | 8 µg/mL (≈ 19.4 µM) | 4 µg/mL (≈ 9.7 µM) | 8 µg/mL (≈ 19.4 µM) | 8 µg/mL (≈ 19.4 µM) | 4 µg/mL (≈ 9.7 µM) | 4 µg/mL (≈ 9.7 µM) | > 32 µg/mL | > 32 µg/mL | > 32 µg/mL | > 32 µg/mL | > 32 µg/mL | > 32 µg/mL
16 | Cc1cccc(N2CC(c3nc4ccccc4n3C)CC2=O)c1Br (stereo not given) | 92.6% | 30.1% | 1690 nM | 16 µg/mL (≈ 41.6 µM) | 32 µg/mL (≈ 83.3 µM) | 16 µg/mL (≈ 41.6 µM) | 32 µg/mL (≈ 83.3 µM) | 16 µg/mL (≈ 41.6 µM) | 8 µg/mL (≈ 20.8 µM) | > 32 µg/mL | > 32 µg/mL | > 32 µg/mL | > 32 µg/mL | > 32 µg/mL | > 32 µg/mL
17 | Cn1c(C2CC(=O)N(c3cccc(Cl)c3)C2)nc2ccccc21 (stereo not given) | 69.6% | 12.8% | 3530 nM | 32 µg/mL (≈ 98.2 µM) | > 32 µg/mL | 32 µg/mL (≈ 98.2 µM) | 32 µg/mL (≈ 98.2 µM) | 32 µg/mL (≈ 98.2 µM) | > 32 µg/mL | > 32 µg/mL | > 32 µg/mL | > 32 µg/mL | > 32 µg/mL | > 32 µg/mL | > 32 µg/mL
